Experimental data: paper PMC9511441, “Semisynthetic teicoplanin derivatives with dual antimicrobial activity against SARS-CoV-2 and multiresistant bacteria” (Scientific Reports, 2022)
Values after ≈ are worked out from the molar mass of the structure shown. Where two headings read alike, the source gives them in different places.

Key:
SARS-CoV-2 pseudovirus = experiment: microbe, parasite or virus in culture; format: cell-based; details: cathepsin-dependent endosomal pathway
S. aureus ATCC29213 [1] = experiment: Fluorescent competition assay, release of fluorescent teicoplanin; format: binding; details: cells saturated with FL-TEI, Fig. 7 right panel
[2] = system: Klebsiella pneumoniae ST258 clone K 160/09; experiment: MIC against Gram-negative strain; details: Klebsiella pneumoniae
[3] = system: Escherichia coli ATCC 25218; experiment: MIC against Gram-negative strain; details: ATCC25218
[4] = system: Pseudomonas aeruginosa ATCC 27853; experiment: MIC against Gram-negative strain; details: ATCC27853
Calu-3 cells = experiment: Cytotoxicity in mock-infected Calu-3 cells (XTT); details: read-out: CC50, Calu-3 cells, three days
[5] = system: Acinetobacter baumannii ATCC BAA1605; experiment: MIC against Gram-negative strain; details: Acinetobacter baumannii, ATCCBAA1605
HEL cells = experiment: Cytotoxicity in mock-infected HEL cells (MTS); format: cell-based, human; details: mock-infected HEL cells, MTS, mean of 2–3 tests
S.pyogenes = experiment: MIC, broth microdilution; format: cell-based; details: Streptococcus pyogenes
S. aureus = experiment: MIC, broth microdilution; format: cell-based; details: Staphylococcus aureus
S. haemolyticus = experiment: MIC, broth microdilution; format: cell-based; details: Staphylococcus haemolyticus
E. faecalis = experiment: MIC, broth microdilution; format: cell-based; details: Enterococcus faecalis
[6] = molecular target: T1, human recombinant cathepsin L (Homo sapiens, UniProt P07711); experiment: biochemical; format: biochemical
T1 construct: made in house; host or cells: Escherichia coli
T1 sequence (P07711 114-333): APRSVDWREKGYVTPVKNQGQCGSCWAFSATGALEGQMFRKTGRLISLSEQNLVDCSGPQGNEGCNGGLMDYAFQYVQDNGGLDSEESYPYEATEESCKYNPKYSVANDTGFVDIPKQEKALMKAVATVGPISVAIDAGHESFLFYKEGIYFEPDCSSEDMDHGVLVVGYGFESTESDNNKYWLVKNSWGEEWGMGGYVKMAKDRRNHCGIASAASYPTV

HCoV-229E = experiment: CPE reduction assay, HCoV-229E in HEL cells; format: cell-based
VeroE6 cells = experiment: Cytotoxicity in mock-infected VeroE6 cells (XTT); format: cell-based, African green monkey; details: mock-infected Vero E6 cells, three days, XTT
S. aureus ATCC29213 [7] = experiment: Fluorescent competition assay, release of fluorescent vancomycin; details: cells saturated with FL-VAN, Fig. 7 left panel
S. epidermidis = experiment: microbe, parasite or virus in culture; format: cell-based; details: Staphylococcus epidermidis
E. faecium = experiment: microbe, parasite or virus in culture; format: cell-based; details: for MIC: Enterococcus faecium

CC(=O)N[C@H]1[C@H](O[C@@H]2c3ccc(c(Cl)c3)Oc3cc4cc(c3O)Oc3ccc(cc3Cl)C[C@H]3NC(=O)[C@H](NC(=N)N)c5ccc(O)c(c5)Oc5cc(O)cc(c5)[C@H](NC3=O)C(=O)N[C@H]4C(=O)N[C@H]3C(=O)N[C@@H]2C(=O)N[C@H](C(=O)O)c2cc(O)cc(O)c2-c2cc3ccc2O)O[C@H](CO)[C@@H](O)[C@@H]1O [Compound 6]
Inhibition of pseudovirus entry in Vero cells (in words) (SARS-CoV-2 pseudovirus): moderately active
Outcompeting fluorescent teicoplanin from S. aureus (in words) (S. aureus ATCC29213 [1]): the most active competitor
MIC [2]: 128 µg/mL (≈ 88.6 µM)
MIC [3]: 128 µg/mL (≈ 88.6 µM)
MIC [4]: 256 µg/mL (≈ 177 µM)
CC50 (Calu-3 cells): > 100 µM
MIC [5]: 128 µg/mL (≈ 88.6 µM)
CC50 (HEL cells): > 100 µM
MIC (S.pyogenes; read-out: MIC value, S.pyogenes H232): 0.125 µg/mL (≈ 0.0866 µM)
MIC (S.pyogenes; read-out: MIC value, S.pyogenes H550): 0.125 µg/mL (≈ 0.0866 µM)
MIC (S.pyogenes; read-out: MIC value, S.pyogenes H578): 0.125 µg/mL (≈ 0.0866 µM)
MIC (S. aureus; ATCC 29213 / MSSA, read-out: MIC value, S. aureus ATCC29213, MSSA): 0.25 µg/mL (≈ 0.173 µM)
MIC (S. aureus; MRSA / USA300, read-out: MIC value, S. aureus USA300, CA-MRSA): 0.125 µg/mL (≈ 0.0866 µM)
MIC (S. aureus; MRSA, read-out: Average MIC value, S. aureus CA-MRSA, 1 strain): 0.125 µg/mL (≈ 0.0866 µM)
MIC (S. aureus; MRSA, read-out: Average MIC value, S. aureus MRSA, 7 strains): 0.125 µg/mL (≈ 0.0866 µM)
MIC (S. aureus; MRSA, read-out: MIC value, S. aureus 73OL, MRSA): 0.125 µg/mL (≈ 0.0866 µM)
MIC (S. aureus; MRSA, read-out: MIC value, S. aureus 214OL, MRSA): 0.125 µg/mL (≈ 0.0866 µM)
MIC (S. aureus; MRSA, read-out: MIC value, S. aureus 1041OL, MRSA): 0.125 µg/mL (≈ 0.0866 µM)
MIC (S. aureus; MRSA, read-out: MIC value, S. aureus A6918, MRSA): 0.125 µg/mL (≈ 0.0866 µM)
MIC (S. aureus; MRSA, read-out: MIC value, S. aureus A6919, MRSA): 0.125 µg/mL (≈ 0.0866 µM)
MIC (S. aureus; MRSA, read-out: MIC value, S. aureus Mu50, MRSA): 0.125 µg/mL (≈ 0.0866 µM)
MIC (S. aureus; MRSA, read-out: MIC value, S. aureus N315, MRSA): 0.125 µg/mL (≈ 0.0866 µM)
MIC (S. aureus; MSSA / NEWMAN, read-out: MIC value, S. aureus Newman, MSSA): 0.25 µg/mL (≈ 0.173 µM)
MIC (S. aureus; MSSA, read-out: Average MIC value, S. aureus MSSA, 4 strains): 0.188 µg/mL (≈ 0.13 µM)
MIC (S. aureus; MSSA, read-out: MIC value, S. aureus MSSA476, MSSA): 0.125 µg/mL (≈ 0.0866 µM)
MIC (S. aureus; MSSA, read-out: MIC value, S. aureus SA564, MSSA): 0.125 µg/mL (≈ 0.0866 µM)
MIC (S. haemolyticus; S. haemolyticus mecA, 6 strains, read-out: Average MIC value): 0.27 µg/mL (≈ 0.187 µM)
MIC (S. haemolyticus; S.haemolyticus DALB_R1, mecA, read-out: MIC value): 0.5 µg/mL (≈ 0.346 µM)
MIC (S. haemolyticus; S.haemolyticus DALB_R2, mecA, read-out: MIC value): 0.25 µg/mL (≈ 0.173 µM)
MIC (S. haemolyticus; S.haemolyticus DALB_R3, mecA, read-out: MIC value): 0.25 µg/mL (≈ 0.173 µM)
MIC (S. haemolyticus; S.haemolyticus DALB_R4, mecA, read-out: MIC value): 0.125 µg/mL (≈ 0.0866 µM)
MIC (S. haemolyticus; S.haemolyticus DALB_R5, mecA, read-out: MIC value): 0.25 µg/mL (≈ 0.173 µM)
MIC (S. haemolyticus; S.haemolyticus ORI_R1, mecA, read-out: MIC value): 0.25 µg/mL (≈ 0.173 µM)
MIC (E. faecalis; read-out: Average MIC value, E. faecalis VAN^R,TEI^R/VanA, 1 strain): 0.125 µg/mL (≈ 0.0866 µM)
MIC (E. faecalis; read-out: Average MIC value, E. faecalis VAN^S, TEI^S, 2 strains): 0.125 µg/mL (≈ 0.0866 µM)
MIC (E. faecalis; read-out: MIC value, E.faecalis JH2-2): 0.125 µg/mL (≈ 0.0866 µM)
MIC (E. faecalis; read-out: MIC value, E.faecalis OG1RF): 0.125 µg/mL (≈ 0.0866 µM)
MIC (E. faecalis; read-out: MIC value, E.faecalis V583, VAN,TEI/VanA): 0.125 µg/mL (≈ 0.0866 µM)
Cathepsin L inhibition (in words) [6]: did not prove to be an inhibitor
IC50 ([6]; read-out: Cathepsin L IC50, pH 5.5, Z-Phe-Arg-AMC substrate): > 500 µM
Activity against HCoV-229E CPE (in words) (HCoV-229E): only modest activity
CC50 (VeroE6 cells): > 100 µM
Outcompeting fluorescent vancomycin from S. aureus (in words) (S. aureus ATCC29213 [7]): highly effective at outcompeting fluorescent vancomycin
MIC (S. epidermidis; read-out: Average MIC value, S. epidermidis mecA, 6 strains): 0.1 µg/mL (≈ 0.0692 µM)
MIC (S. epidermidis; read-out: MIC value, S.epidermidis ORI_R1, mecA): 0.0625 µg/mL (≈ 0.0433 µM)
MIC (S. epidermidis; read-out: MIC value, S.epidermidis ORI_R2, mecA): 0.125 µg/mL (≈ 0.0866 µM)
MIC (S. epidermidis; read-out: MIC value, S.epidermidis ORI_R3, mecA): 0.0625 µg/mL (≈ 0.0433 µM)
MIC (S. epidermidis; read-out: MIC value, S.epidermidis ORI_R4, mecA): 0.0625 µg/mL (≈ 0.0433 µM)
MIC (S. epidermidis; read-out: MIC value, S.epidermidis TEI_R1, mecA): 0.0625 µg/mL (≈ 0.0433 µM)
MIC (S. epidermidis; read-out: MIC value, S.epidermidis TEI_R2, mecA): 0.25 µg/mL (≈ 0.173 µM)
MIC (E. faecium; read-out: Average MIC value, E. faecium VAN^R,TEI^R/VanA, 8 strains): 0.156 µg/mL (≈ 0.108 µM)
MIC (E. faecium; read-out: Average MIC value, E. faecium VAN^S, TEI^S, 1 strain): 0.0625 µg/mL (≈ 0.0433 µM)
MIC (E. faecium; read-out: MIC value, E.faecium E335, VAN,TEI,LNZ/VanA): 0.125 µg/mL (≈ 0.0866 µM)
MIC (E. faecium; read-out: MIC value, E.faecium E355, VAN,TEI,LNZ/VanA): 0.125 µg/mL (≈ 0.0866 µM)
MIC (E. faecium; read-out: MIC value, E.faecium E832, VAN,TEI,LNZ/VanA): 0.125 µg/mL (≈ 0.0866 µM)
MIC (E. faecium; read-out: MIC value, E.faecium E854, VAN,TEI,LNZ/VanA): 0.125 µg/mL (≈ 0.0866 µM)
MIC (E. faecium; read-out: MIC value, E.faecium E859, VAN,TEI,LNZ/VanA): 0.125 µg/mL (≈ 0.0866 µM)
MIC (E. faecium; read-out: MIC value, E.faecium E1114, VAN,TEI,LNZ/VanA): 0.5 µg/mL (≈ 0.346 µM)
MIC (E. faecium; read-out: MIC value, E.faecium E1131, VAN,TEI,LNZ/VanA): 0.0625 µg/mL (≈ 0.0433 µM)
MIC (E. faecium; read-out: MIC value, E.faecium E1132, VAN,TEI,LNZ/VanA): 0.0625 µg/mL (≈ 0.0433 µM)
MIC (E. faecium; read-out: MIC value, E.faecium TX0016): 0.0625 µg/mL (≈ 0.0433 µM)
Activity against E. faecium strains expressing the VanA resistance phenotype (in words) (E. faecium; VanA phenotype): strong activity
